Laboratory results reported in ChEMBL document CHEMBL1909046, “DrugMatrix in vitro pharmacology data”.

What was measured:
[1] = molecular target: T1, Alpha-2C adrenergic receptor (Homo sapiens, UniProt P18825); assay: DRUGMATRIX: Adrenergic Alpha-2C radioligand binding (ligand: [3H] MK-912); format: cell membranes, Sf9, Membrane; conditions: for Ki: read-out: Ki
T1 sequence (P18825 whole entry): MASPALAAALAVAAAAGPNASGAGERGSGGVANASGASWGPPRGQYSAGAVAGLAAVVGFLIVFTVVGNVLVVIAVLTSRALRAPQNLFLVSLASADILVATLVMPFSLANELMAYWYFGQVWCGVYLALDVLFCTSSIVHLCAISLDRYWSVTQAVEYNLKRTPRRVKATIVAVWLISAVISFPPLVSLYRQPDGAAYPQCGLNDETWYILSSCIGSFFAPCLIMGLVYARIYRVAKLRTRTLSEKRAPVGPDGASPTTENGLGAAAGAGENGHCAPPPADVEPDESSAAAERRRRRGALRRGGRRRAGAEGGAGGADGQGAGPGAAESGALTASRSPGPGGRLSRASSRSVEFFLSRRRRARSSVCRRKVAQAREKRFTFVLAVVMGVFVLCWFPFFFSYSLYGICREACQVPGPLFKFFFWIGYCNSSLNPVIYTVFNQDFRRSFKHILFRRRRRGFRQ

[2] = molecular target: T2, Type-2 angiotensin II receptor (Homo sapiens, UniProt P50052); assay: biochemical; format: cell-based, CHO-K1; conditions: cho-k1; also: in other assays of this panel Not Active means under 50% inhibition at 10 µM
T2 sequence (P50052 whole entry): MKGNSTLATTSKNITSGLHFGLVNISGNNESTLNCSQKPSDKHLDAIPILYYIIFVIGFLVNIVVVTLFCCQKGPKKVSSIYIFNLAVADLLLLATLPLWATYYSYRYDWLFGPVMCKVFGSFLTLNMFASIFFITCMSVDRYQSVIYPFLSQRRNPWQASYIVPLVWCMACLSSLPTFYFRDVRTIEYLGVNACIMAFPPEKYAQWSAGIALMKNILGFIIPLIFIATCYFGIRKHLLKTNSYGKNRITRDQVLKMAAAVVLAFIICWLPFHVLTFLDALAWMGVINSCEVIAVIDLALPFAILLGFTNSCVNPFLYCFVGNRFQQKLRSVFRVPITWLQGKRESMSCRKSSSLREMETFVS

[3] = molecular target: Carbonic anhydrase 2 (Homo sapiens, UniProt P00918); assay: DRUGMATRIX: Carbonic Anhydrase II enzyme inhibition (substrate: 4-Nitrophenyl acetate (4-NPA)); format: tissue-based, Erythrocyte; conditions: erythrocyte; Not Active = under 50% inhibition at 10 µM
[4] = DRUGMATRIX: Interleukin IL-1 radioligand binding (ligand: [125I] interleukin 1beta); format: cell membranes, Membrane; conditions: nih3t3; Not Active = under 50% inhibition at 10 µM
[5] = molecular target: T3, Interstitial collagenase (Homo sapiens, UniProt P03956); assay: biochemical; format: tissue-based, Rheumatoid synovial fibroblasts;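 also: MMP-1 enzyme inhibition assay using a peptide substrate; in other assays of this panel Not Active means under 50% inhibition at 10 µM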
T3 sequence (P03956 whole entry): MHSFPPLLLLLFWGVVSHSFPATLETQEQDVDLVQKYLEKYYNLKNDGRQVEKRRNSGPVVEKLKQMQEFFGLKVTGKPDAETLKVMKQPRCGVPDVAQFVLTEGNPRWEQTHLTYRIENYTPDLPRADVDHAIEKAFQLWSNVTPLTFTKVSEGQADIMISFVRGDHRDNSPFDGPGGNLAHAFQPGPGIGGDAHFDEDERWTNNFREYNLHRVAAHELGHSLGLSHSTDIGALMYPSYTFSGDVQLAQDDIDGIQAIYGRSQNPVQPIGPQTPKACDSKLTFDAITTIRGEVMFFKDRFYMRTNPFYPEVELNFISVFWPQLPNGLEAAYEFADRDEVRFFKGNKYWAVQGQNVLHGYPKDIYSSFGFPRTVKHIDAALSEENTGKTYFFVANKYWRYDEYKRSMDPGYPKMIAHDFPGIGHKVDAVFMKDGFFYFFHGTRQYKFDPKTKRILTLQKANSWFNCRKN

[6] = molecular target: Acetylcholinesterase (Homo sapiens, UniProt P22303); assay: DRUGMATRIX: Acetylcholinesterase enzyme inhibition (substrate: acetylthiocholine); format: cell-based, HEK293; conditions: hek293; Not Active = under 50% inhibition at 10 µM
[7] = molecular target: T4, Muscarinic acetylcholine receptor M2 (Homo sapiens, UniProt P08172); format: cell membranes, CHO-K1, Membrane; also: in other assays of this panel Not Active means under 50% inhibition at 10 µM
T4 sequence (P08172 whole entry): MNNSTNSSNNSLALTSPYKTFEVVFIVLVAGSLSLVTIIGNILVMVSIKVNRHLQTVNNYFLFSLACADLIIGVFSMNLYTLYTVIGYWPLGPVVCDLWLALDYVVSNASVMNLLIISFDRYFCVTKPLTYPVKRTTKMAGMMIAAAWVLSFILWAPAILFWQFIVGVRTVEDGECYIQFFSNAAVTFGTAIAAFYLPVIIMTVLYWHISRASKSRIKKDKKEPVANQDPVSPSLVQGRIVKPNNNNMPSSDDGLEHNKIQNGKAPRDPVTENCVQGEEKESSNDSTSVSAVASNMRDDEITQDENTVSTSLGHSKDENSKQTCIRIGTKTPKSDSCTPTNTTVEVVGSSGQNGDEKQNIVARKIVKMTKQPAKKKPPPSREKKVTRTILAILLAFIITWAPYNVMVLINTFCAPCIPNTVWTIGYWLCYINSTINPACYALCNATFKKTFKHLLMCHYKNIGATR

Chain of Acetylcholinesterase (P22303 whole entry): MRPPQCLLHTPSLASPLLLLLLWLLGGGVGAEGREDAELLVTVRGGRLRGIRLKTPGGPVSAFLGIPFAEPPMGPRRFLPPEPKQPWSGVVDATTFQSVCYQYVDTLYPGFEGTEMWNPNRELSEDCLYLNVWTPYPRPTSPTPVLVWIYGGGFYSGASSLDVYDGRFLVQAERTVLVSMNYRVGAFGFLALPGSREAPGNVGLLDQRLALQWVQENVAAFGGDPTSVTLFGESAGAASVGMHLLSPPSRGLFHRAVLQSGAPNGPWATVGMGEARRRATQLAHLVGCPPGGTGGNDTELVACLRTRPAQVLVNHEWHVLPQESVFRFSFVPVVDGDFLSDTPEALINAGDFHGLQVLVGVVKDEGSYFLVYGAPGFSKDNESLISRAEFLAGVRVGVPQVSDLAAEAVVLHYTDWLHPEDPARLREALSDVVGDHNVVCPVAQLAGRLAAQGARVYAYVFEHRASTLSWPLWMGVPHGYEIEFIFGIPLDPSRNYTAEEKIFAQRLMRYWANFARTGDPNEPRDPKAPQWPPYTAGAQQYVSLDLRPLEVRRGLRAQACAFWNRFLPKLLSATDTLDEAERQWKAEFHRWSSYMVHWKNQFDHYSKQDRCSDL

| Structure (SMILES) | IC50 ([1]; read-out: IC50) [µM] | Ki [1] [µM] | IC50 [2] | IC50 [3] | IC50 [4] | Ki [4] | IC50 [5] | IC50 [6] | IC50 ([1]; sf9) | IC50 ([7]; cho-k1) | IC50 ([7]; read-out: IC50) [µM] | Ki ([7]; read-out: Ki) [µM] |
| --- | --- | --- | --- | --- | --- | --- | --- | --- | --- | --- | --- | --- |
| CN(C)CCC=C1c2ccccc2CCc2ccccc21 [AMITRIPTYLINE] | 0.059 | 0.0086 | Not Active | Not Active | Not Active | Not Active | Not Active | Not Active | – | – | – | – |
| CC(=O)Oc1ccccc1C(=O)O [ASPIRIN] | – | – | Not Active | Not Active | Not Active | Not Active | Not Active | Not Active | Not Active | Not Active | – | – |
| CC(C)c1c(C(=O)Nc2ccccc2)c(-c2ccccc2)c(-c2ccc(F)cc2)n1CC[C@@H](O)C[C@@H](O)CC(=O)O [ATORVASTATIN] | – | – | Not Active | Not Active | Not Active | Not Active | Not Active | Not Active | Not Active | Not Active | – | – |
| CC(=O)OC[C@H]1O[C@@H](n2ncc(=O)[nH]c2=O)[C@H](OC(C)=O)[C@@H]1OC(C)=O [AZARIBINE] | – | – | Not Active | Not Active | Not Active | Not Active | Not Active | Not Active | Not Active | Not Active | – | – |
| C[C@H]1[C@H](NC(=O)/C(=N\OC(C)(C)C(=O)O)c2csc(N)n2)C(=O)N1S(=O)(=O)O [AZTREONAM] | – | – | Not Active | Not Active | Not Active | Not Active | Not Active | Not Active | Not Active | Not Active | – | – |
| O=C(O)CCNC(=O)c1ccc(/N=N/c2ccc(O)c(C(=O)O)c2)cc1 [BALSALAZIDE] | – | – | Not Active | Not Active | Not Active | Not Active | Not Active | Not Active | Not Active | Not Active | – | – |
| COc1cc(OC)c(C(=O)CCCN2CCCC2)c(OC)c1 [BUFLOMEDIL] | – | – | Not Active | Not Active | Not Active | Not Active | Not Active | Not Active | Not Active | Not Active | – | – |
| Cn1c(=O)c2c(ncn2C)n(C)c1=O [CAFFEINE] | – | – | Not Active | Not Active | Not Active | Not Active | Not Active | Not Active | Not Active | Not Active | – | – |
| CN(C)C(=O)Oc1cccc([N+](C)(C)C)c1.[Br-] [NEOSTIGMINE BROMIDE] | – | – | Not Active | Not Active | Not Active | Not Active | Not Active | – | Not Active | Not Active | – | – |
| N=C(N)c1ccc(OCCCCCOc2ccc(C(=N)N)cc2)cc1 [PENTAMIDINE] | – | – | Not Active | Not Active | Not Active | Not Active | Not Active | Not Active | Not Active | – | – | – |
| CCN(CC)CCCC(C)Nc1c2ccc(Cl)cc2nc2ccc(OC)cc12 (configuration not stated) [QUINACRINE] | 3.86 | 0.56 | Not Active | Not Active | Not Active | Not Active | Not Active | – | – | – | 0.964 | 0.343 |
